Reference: patent US11981701B2, “PRMT5 inhibitors” (Merck Sharp & Dohme LLC, priority 2018, dated 2024)
Where a name gives a salt, the structure may show the parent alone. Read-outs that look alike come from different tables or passages of the source.

Tests used:
[1] = target: T1, PRMT5 (Homo sapiens, UniProt O14744); assay: PRMT5 Cell Target Engagement (TE) Assay; assay type: cell-based; conditions: MCF-7 cells, treated for 3 days, symmetrically dimethylated (SDMA) nuclear proteins by high content imaging; top concentration 10000 nM
T1 construct: seeded with 4000 MCF-7 cells; endogenous in cells; host or cells: MCF-7 cells
Source text: The PRMT5 TE assay is a biomarker assay for identifying compounds that inhibit symmetric dimethylation of arginine (SDMA) of PRMT5 substrates. The following substrates have been reported for PRMT5: histone H2A and H4 R3, Histone H3 R2, Histone H3 R8, spliceosome Sm proteins, ribosomal protein RPS10, p53, FEN1, nucleoplasmin, nucleolin, EGFR and EBNA. The assay will focus on detecting symmetrically dimethylated nuclear proteins using high content imaging technology. Detection of the expression of symmetrically dimethylated nuclear proteins is through a mixture of primary rabbit monoclonal antibodies to SDMA (CST 13222), which in turn recognized by an Alexafluor 488 dye-conjugated anti-rabbit IgG secondary antibody. The IN Cell Analyzer 2200 or Opera-Phenix measures nuclear Alexafluor 488 fluorescent dye intensity that is directly related to the level of expression of symmetrically dimethylated nuclear proteins at the single cell level. Nuclear AF488 dye intensities are compared to the mean value for DMSO treated cells (MIN) to report percent of inhibition for each compound-treated well. In this assay, the cell potency (EC50) of each compound was determined from a ten point (1:3 serial dilution; top compound concentration of 10000 nM) titration curve using the following outlined procedure. Each well of a BD falcon collagen coated black/clear bottom 384-well plate was seeded with 4000 MCF-7 cells in 30 μl media and allowed to attach for 5 h. Media is ATCC-formulated Eagle's Minimum Essential Medium, Catalog No. 30-2003. To make the complete growth medium, add the following components to the base medium: 0.01 mg/ml human recombinant insulin; fetal bovine serum to a final concentration of 10%. Additional 30 μl of media containing 2× compounds were added to each well. Cells were treated for 3 days in 37° C. CO2 incubator. On day 3, cells were fixed with Cytofix, permeabilized with 0.4% Triton-X-100/Cytofix, and washed with D-PBS without Ca/Mg. Cells were blocked with Licor Odessey blocking reagent for 1 h at room temperature, followed by incubation with anti-SDMA (1:1000) antibody at 4° C. overnight. 1° antibody was removed, followed by three washings with DPBS without Ca/Mg and 0.05% Tween20. Hoechst (5 μg/ml), Cell Mask deep stain (1:2000) and Alexa488-conjugated goat anti-rabbit IgG (2 μg/mL) was added for 1 hour at room temperature. A final washing step (three washes) was performed before sealing plate for imaging on In Cell Analyzer 2200 or Opera-Phenix. Images from analyzer were uploaded to Columbus (at WP or BOS) for image analysis. IC50 values were determined by 4 parameters robust fit of percent fluorescence units vs. (Log10) compound concentrations.

[2] = target: T2, Full-length (FL)-PRMT5-MEP50 enzyme complex (Homo sapiens, UniProt O14744); assay: PRMT5-MEP50 Enzyme Methylation Assay; assay type: biochemical; conditions: 1.0 nM PRMT5-MEP50, 75 nM biotinylated H4R3(Me1) peptide, 15 μM SAM, 60 min pre-incubation, 150 min at 37° C.
T2 construct: 1.25 nM of Full-length (FL)-PRMT5-MEP50 enzyme complex; made in house; host or cells: baculovirus-transfected Sf21 cells
Description: PRMT5/MEP50 biochemical assay is a direct measurement of the methylation activity of the enzyme complex on a short peptide substrate derived from the N-terminus of H4 histone. Methylation experiment is performed with recombinant protein. The assessment of inhibitory effect (IC50) of small molecules is measured by the effectiveness of the compounds to inhibit this reaction.
In this assay, the potency (IC50) of each compound was determined from a twenty-point (1:2 serial dilution; top compound concentration of 100000 nM) titration curve using the following outlined procedure. To each well of a white ProxiPlus 384 well-plate, 100 nL of compound (1% DMSO in final assay volume of 10 μL) was dispensed, followed by the addition of 8 μL of 1× assay buffer (50 mM Bicine pH 8.0, 1 mM DTT, 0.004% Tween20, 0.01% BSA) containing 1.25 nM of Full-length (FL)-PRMT5-MEP50 enzyme complex (recombinant proteins from baculovirus-transfected Sf21 cells: FL-PRMT5; MW=[…] and FL-MEP50; MW=38614) and 1 μL of 150 μM S-(5′-Adenosyl)-L-Methionine Chloride (SAM). Plates were sealed and placed in a 37° C. humidified chamber for a 60 min pre-incubation with compound. Subsequently, each reaction was initiated by the addition of 1 μL 1× assay buffer containing 750 nM biotinylated H4R3(Me1) peptide. The final reaction in each well of 10 μL consists of 1.0 nM PRMT5-MEP50, 75 nM biotinylated-peptide, and 15 μM SAM. Methylation reactions were allowed to proceed for 150 min in a sealed plate at 37° C. Reactions were immediately quenched by the addition of 1 μL of 5% formic acid. Plates were then frozen and shipped to SAMDI™ Tech Inc. to determine the percent conversion from H4R3(Me1) to H4R3(Me2). IC50 values were determined by a 7 parameter biphasic fit model plotting the percent Effect (based on product conversion) vs. (Log10) compound concentrations.

[3] = first value of 7 parameter biphasic fit, read-out: Enzyme Methylation Assay EC50_1
[4] = second value of 7 parameter biphasic fit, read-out: Enzyme Methylation Assay EC50_2

T1 sequence (O14744 whole entry): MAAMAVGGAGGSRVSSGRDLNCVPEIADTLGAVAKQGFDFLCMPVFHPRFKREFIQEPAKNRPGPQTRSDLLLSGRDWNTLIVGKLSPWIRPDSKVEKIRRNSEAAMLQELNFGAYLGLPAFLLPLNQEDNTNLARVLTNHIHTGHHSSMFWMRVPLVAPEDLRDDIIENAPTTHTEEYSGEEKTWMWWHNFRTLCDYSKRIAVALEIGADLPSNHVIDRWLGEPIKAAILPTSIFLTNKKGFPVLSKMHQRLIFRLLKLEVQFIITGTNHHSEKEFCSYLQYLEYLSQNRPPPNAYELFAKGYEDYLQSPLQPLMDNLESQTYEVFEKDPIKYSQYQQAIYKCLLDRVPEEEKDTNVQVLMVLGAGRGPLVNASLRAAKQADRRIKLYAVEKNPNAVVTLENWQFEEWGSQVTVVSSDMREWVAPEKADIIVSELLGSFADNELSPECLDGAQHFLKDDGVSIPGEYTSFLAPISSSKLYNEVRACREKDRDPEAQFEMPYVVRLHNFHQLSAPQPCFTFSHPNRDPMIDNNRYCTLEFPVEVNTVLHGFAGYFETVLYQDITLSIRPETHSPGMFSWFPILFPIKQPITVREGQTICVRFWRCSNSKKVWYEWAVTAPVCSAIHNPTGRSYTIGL
T1 sequence (Q9BQA1 whole entry partner): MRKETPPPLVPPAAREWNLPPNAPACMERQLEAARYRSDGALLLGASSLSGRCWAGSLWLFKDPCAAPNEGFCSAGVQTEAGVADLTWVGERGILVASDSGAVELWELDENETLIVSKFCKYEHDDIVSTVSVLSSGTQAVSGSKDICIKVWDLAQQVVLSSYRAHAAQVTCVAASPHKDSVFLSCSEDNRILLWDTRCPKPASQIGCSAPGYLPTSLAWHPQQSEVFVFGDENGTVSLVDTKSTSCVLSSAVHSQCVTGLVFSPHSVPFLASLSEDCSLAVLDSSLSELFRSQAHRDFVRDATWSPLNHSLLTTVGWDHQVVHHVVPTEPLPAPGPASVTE
T2 sequence (O14744 whole entry): as the sequence (O14744 whole entry) above
T2 sequence (Q9BQA1 whole entry partner): as the sequence (Q9BQA1 whole entry partner) above

Structure (SMILES) | EC50 [1] [nM] | EC50 [2, 3] [nM] | EC50 [2, 4] [nM]
Nc1ccn([C@@H]2C[C@H](CCc3ccc4ccc(NCC(F)F)nc4c3)[C@@H](O)[C@H]2O)c2ncnc1-2 [Example 7, (1R,2S,3R,5S)-3-(7-amino-4H-imidazo[4,5-b]pyridin-4-yl)-5-(2-{2-[(2,2-difluoroethyl)amino]-7-quinolinyl}ethyl)-1,2-cyclopentanediol] | 16.1 | 0.231 | 
Cc1ccn([C@@H]2C[C@H](COc3ccc4cc(Br)c(N)nc4c3)[C@@H](O)[C@H]2O)c2ncnc1-2 [Example 13, (1S,2R,3R,5R)-3-(((2-amino-3-bromoquinolin-7-yl)oxy)methyl)-5-(7-methyl-4H-imidazo[4,5-b]pyridin-4-yl)cyclopentane-1,2-diol] | 61.5 | 0.404 | 
Nc1nc2cc(OC[C@H]3O[C@@H](n4nc5ncnc-5c(N)n4)[C@H](O)[C@@H]3O)ccc2cc1Br [Example 3, 2-[5-O-(2-amino-3-bromo-7-quinolinyl)-b-D-ribofuranosyl]-2H-imidazo[4,5-d][1,2,3]triazin-4-amine trifluoroacetate] | > 10000 | 1620 | 
Cc1cc2ncnc-2n([C@@H]2C[C@H](CCc3ccc4cc(Br)c(N)nc4c3)[C@@H](O)[C@H]2O)c1 [Example 10, (1S,2R,3S,5R)-3-[2-(2-amino-3-bromo-7-quinolinyl)ethyl]-5-(6-methyl-4H-imidazo[4,5-b]pyridin-4-yl)-1,2-cyclopentanediol trifluoroacetate] | 116 | 1.62 | 
Nc1nc2cc(CC[C@H]3C[C@@H](n4cnc(N)c5ncnc4-5)[C@H](O)[C@@H]3O)ccc2cc1Br [Example 6, (1S,2R,3S,5R)-3-[2-(2-amino-3-bromo-7-quinolinyl)ethyl]-5-(6-amino-3H-purin-3-yl)-1,2-cyclopentanediol hydrochloride] | 1.69 | 0.264 | 
Cc1ncn([C@@H]2C[C@H](CCc3ccc4cc(Br)c(N)nc4c3)[C@@H](O)[C@H]2O)c2ncnc1-2 [Example 9, (1S,2R,3S,5R)-3-[2-(2-amino-3-bromo-7-quinolinyl)ethyl]-5-(6-methyl-3H-purin-3-yl)-1,2-cyclopentanediol] | 1.05 | 0.282 | 
Cc1ccn([C@@H]2O[C@H](CCc3ccc4cc(Br)c(N)nc4c3)[C@@H](O)[C@H]2O)c2ncnc1-2 [Example 12, (2R,3S,4R,5R)-2-(2-(2-amino-3-bromoquinolin-7-yl)ethyl)-5-(7-methyl-4H-imidazo [4,5-b]pyridin-4-yl)tetrahydrofuran-3,4-diol] | 1.7 | 0.58 | 
Cc1ccn([C@@H]2C[C@H](CCc3ccc4cc(Br)c(N)nc4c3)[C@@H](O)[C@H]2O)c2ncnc1-2 [Example 5, (1S,2R,3S,5R)-3-[2-(2-amino-3-bromo-7-quinolinyl)ethyl]-5-(7-methyl-4H-imidazo[4,5-b]pyridin-4-yl)-1,2-cyclopentanediol] | 0.508 | 0.32 | 
Nc1nc2cc(OC[C@H]3O[C@@H](n4cnc(N)c5ncnc4-5)[C@H](O)[C@@H]3O)ccc2cc1Br [Example 1, 3-[5-O-(2-amino-3-bromo-7-quinolinyl)-b-D-ribofuranosyl]-3H-purin-6-amine] | 60.6 | 1.37 | 85.1
Cc1ccn([C@@H]2C[C@H](CCc3ccc4ccc(NCC(F)F)nc4c3)[C@@H](O)[C@H]2O)c2ncnc1-2 [Example 8, (1S,2R,3S,5R)-3-(2-{2-[(2,2-difluoroethyl)amino]-7-quinolinyl}ethyl)-5-(7-methyl-4H-imidazo[4,5-b]pyridin-4-yl)-1,2-cyclopentanediol] | 1.94 | 0.253 | 
Nc1ccn([C@@H]2C[C@H](CCc3ccc4cc(Br)c(N)nc4c3)[C@@H](O)[C@H]2O)c2ncnc1-2 [Example 4, (1S,2R,3S,5R)-3-[2-(2-amino-3-bromo-7-quinolinyl)ethyl]-5-(7-amino-4H-imidazo[4,5-b]pyridin-4-yl)-1,2-cyclopentanediol] | 2.54 | 0.489 | 
Nc1ccn([C@@H]2O[C@H](COc3ccc4cc(Br)c(N)nc4c3)[C@@H](O)[C@H]2O)c2ncnc1-2 [Example 2, 4-[5-O-(2-amino-3-bromo-7-quinolinyl)-b-D-ribofuranosyl]-4H-imidazo[4,5-b]pyridin-7-amine] | 19.2 | 0.662 | 18.3
CCc1cc2ncnc-2n([C@@H]2C[C@H](CCc3ccc4cc(Br)c(N)nc4c3)[C@@H](O)[C@H]2O)c1 [Example 11, (1S,2R,3S,5R)-3-[2-(2-amino-3-bromo-7-quinolinyl)ethyl]-5-(6-ethyl-4H-imidazo[4,5-b]pyridin-4-yl)-1,2-cyclopentanediol trifluoroacetate] | 30.2 | 0.96 | 
